# Test results taken from PubChem BioAssay (NCI).
#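 Test compounds were applied to cells in 96-well plates for 48 hours at 5 doses. TGI marks complete inhibition of growth.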
# Legend:
# Experiment in all cases: NCI anticancer screen, dose series, 48 h
# [1] = system: A549 NSCLC
# [2] = system: CCRF-CEM leukemia
# [3] = system: HL-60(TB) leukemia
# [4] = system: HOP-62 NSCLC
# [5] = system: NCI-H460 lung
# [6] = system: U251 CNS
# [7] = system: UACC-257 melanoma
# [8] = system: UACC-62 melanoma
# [9] = system: UO-31 renal
# [10] = system: MDA-MB-231 breast
Compound,TGI [1] [µM],TGI [2] [µM],TGI [3] [µM],TGI [4] [µM],TGI [5] [µM],TGI [6] [µM],TGI [7] [µM],TGI [8] [µM],TGI [9] [µM],TGI [10] [µM]
COc1nc(NC2OC(CO)C(O)C(O)C2O)c(N)c(=O)[nH]1 (configuration not stated),> 100,> 100,> 100,> 100,> 100,> 100,> 100,> 100,> 100,–
Cn1c(=O)cc(Nc2ccc(N)cc2)[nH]c1=O,> 100,> 100,–,> 100,> 100,> 100,> 100,> 100,> 100,> 100
CC#CC#C/C=C1\C=CC2(OC=CC2O)O1 (configuration not stated),> 23.3,> 21.1,> 23.3,> 23.3,> 23.3,> 23.3,> 23.3,> 23.3,> 23.3,–
OC(Cc1cc(CC(O)(C(F)(F)F)C(F)(F)F)nc(CC(O)(C(F)(F)F)C(F)(F)F)c1)(C(F)(F)F)C(F)(F)F,9.69,> 10,> 10,3.63,1.81,5.32,5.26,1.6,–,3.68
CN(C)CC(C)(C)CN1c2ccccc2Sc2ccccc21,29.3,–,–,25.5,26.3,26.4,24.7,28.2,–,24.3
CC(=O)OCC1OC(O[C@H]2C=C[C@@H](C(=O)OCc3ccccc3)n3c(=O)n(-c4ccccc4)c(=O)n32)C(OC(C)=O)C(OC(C)=O)C1OC(C)=O (some centres not stated),35.3,> 19.9,> 100,–,3.05,4.81,3.73,3.18,2.93,4.12
CCCC(C(=O)OC)C1N=C(NC#N)N(Cc2ccccc2)C1=O (configuration not stated),> 100,> 100,> 100,> 100,> 100,> 100,> 100,> 100,> 100,–
COC(=O)C1=CCC2c3[nH]c4ccccc4c3CCN2C1 (configuration not stated),> 354,> 354,> 354,> 354,> 354,> 354,> 354,> 354,–,–
CC(C)(C)CI,73.1,50.8,50.4,–,81.2,66.4,51.6,> 100,> 10,–
CC(C)CC1N=C(OCc2ccccc2)OC1=O (configuration not stated),> 100,> 100,–,> 100,> 100,> 100,> 100,–,> 100,> 100
[O-][N+]1=C2CCC/C(=N/O)C2(O)C2CCCCC21N1CCOCC1 (configuration not stated),> 100,> 100,–,> 100,> 100,> 100,> 100,> 100,> 100,> 100
O=C(CCCn1ccnc1[N+](=O)[O-])NCCn1cnc([N+](=O)[O-])n1,> 100,> 100,> 100,> 100,> 100,> 100,> 100,> 100,> 100,–
CN(/N=C/C=N/N(C)C1=NCCN1)C1=NCCN1,> 100,> 100,–,> 100,> 100,> 100,> 100,> 100,> 100,> 100
COC(=O)Cc1c(C2C(CC(=O)OC)c3ccccc3N2C2OC(CO)C(O)C(O)C2O)[nH]c2ccccc12 (configuration not stated),> 100,> 100,–,> 100,> 100,> 100,> 100,> 100,> 100,> 100
O=C1CN(c2ccccc2)C(=O)CN1NCNN1CC(=O)N(c2ccccc2)CC1=O,> 100,> 100,> 100,> 100,> 100,> 100,> 100,> 100,> 100,–
CN(C)NC1=NS(=O)(=O)c2cc3c(=O)n(C)[nH]c3cc2S1,> 10,> 10,> 10,> 10,> 10,> 10,> 10,–,> 10,–
NC(CSCSCC(N)C(=O)O)C(=O)O (configuration not stated),> 225,> 71.2,> 225,> 225,> 225,> 225,> 225,> 225,> 225,–
